The supplement of paper PMC8671470

Key:
Experiment in all cases: cell viability (% survival relative to DMSO control); higher = less cytotoxic
Conditions in all cases: 72 h
[1] = test system: HL-60
Procedure: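 8x8 drug-combination matrices (0-5000 nM; rosiglitazone and lestaurtinib 0-1000 nM) were run in HL-60 cells for 72 h with a CellTiter-Glo read-out. Survival is normalised to DMSO and 10 µM bortezomib and clipped at 100%. Bliss synergy was analysed in SynergyFinder.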

[2] = test system: myeloid leukemia patient primary cells Pat.10
Method in brief: (§1)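 Where an area under the curve appears, it was computed with the drc and PharmacoGx R packages from log-logistic fits. Those fits used four parameters. The underlying viability data came from CellTiter-Glo after 72 h, normalised to DMSO and 10 μM proteasome-inhibitor wells, with thawed, Ficoll-purified AML or CML patient mononuclear cells at 10,000 cells/well in RPMI 1640 with 10% FBS on 384-well plates pre-printed with 70 compounds at five tenfold concentrations (1–10,000 nM) in duplicate.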

[3] = test system: myeloid leukemia patient primary cells Pat.15
Method in brief: as §1

[4] = test system: myeloid leukemia patient primary cells Pat.9
Method in brief: as §1

[5] = test system: myeloid leukemia patient primary cells Pat.11
Method in brief: as §1

[6] = test system: myeloid leukemia patient primary cells Pat.4
Method in brief: as §1

[7] = test system: myeloid leukemia patient primary cells Pat.13
Method in brief: as §1

[8] = test system: myeloid leukemia patient primary cells Pat.1
Method in brief: as §1

[9] = test system: myeloid leukemia patient primary cells Pat.3
Method in brief: as §1

CC(C)c1onc(-c2c(Cl)cccc2Cl)c1COc1ccc(/C=C/c2cccc(C(=O)O)c2)c(Cl)c1 [GW4064] + Cn1cc(-c2ccncc2)c(-c2ccc(OCc3ccc4ccccc4n3)cc2)n1 [PF-02545920]
cell viability [%], [1]
Conditions	drug1 concentration 5 nM	drug1 concentration 10 nM	drug1 concentration 50 nM	drug1 concentration 100 nM	drug1 concentration 500 nM	drug1 concentration 1000 nM	drug1 concentration 5000 nM
drug2 concentration 5 nM	> 100	98.6	> 100	> 100	> 100	> 100	78.8
drug2 concentration 10 nM	> 100	> 100	> 100	> 100	97	> 100	89.8
drug2 concentration 50 nM	> 100	> 100	> 100	> 100	> 100	68.7	> 100
drug2 concentration 100 nM	81.7	> 100	88.4	76.3	> 100	> 100	53.4
drug2 concentration 500 nM	> 100	65.9	> 100	> 100	> 100	> 100	> 100
drug2 concentration 1000 nM	97.1	> 100	> 100	> 100	> 100	46.6	> 100
drug2 concentration 5000 nM	> 100	> 100	> 100	> 100	> 100	89.8	> 100

C=C(C)[C@H]1Cc2c(ccc3c2O[C@@H]2COc4cc(OC)c(OC)cc4[C@@H]2C3=O)O1 [Rotenone]
cell viability [%]
Conditions	[2]	[3]	[4]	[5]	[6]	[7]	[8]	[9]
1 nM	38.7	44.9	1.24	88.5	79.9	62.5	75.9	48.6
10 nM	75.5	66	50.1	93.3	89.3	80.5	81.3	57.4
100 nM	47.7	43.9	10.8	94.2	88.5	57.6	72.8	35.7
1000 nM	30	24.3	1.6	85.5	62.3	17.2	68.4	25.3
10000 nM	20.9	37.6	< 0	73.9	11.7	11.9	34.8	18

N#CC(C#N)=NNc1ccc(OC(F)(F)F)cc1 [FCCP]
cell viability [%]
Conditions	[2]	[3]	[4]	[5]	[6]	[7]	[8]	[9]
1 nM	66.5	91.2	54	98	89	85	90.1	88.5
10 nM	64	99.1	63.1	97.3	90.4	> 100	89.9	82.9
100 nM	50.5	94.5	82.9	> 100	97.9	89.8	> 100	94.9
1000 nM	7.03	81.5	3.45	82.4	53.6	59.4	59.9	3.06
10000 nM	2.16	3.23	0.492	9.9	4.18	4.66	5.44	< 0

O=C1c2cc([N+](=O)[O-])ccc2-n2c1nc1ccccc1c2=O [GNF-Pf-3777]
cell viability [%]
Conditions	[2]	[3]	[4]	[5]	[6]	[7]	[8]	[9]
1 nM	61.7	90.6	82.9	> 100	97.7	94.2	> 100	93.1
10 nM	47.7	89.1	68.9	97.9	97	96.4	94.8	86.9
100 nM	77.9	96.8	60.9	94	96	96.6	86.5	72.7
1000 nM	36.6	87.9	63.4	86.8	79.5	80.8	77.2	46.2
10000 nM	15.5	40.2	25.8	64.4	19	35.8	65.1	20

O=C(C1CC1)N1CC[C@@H](C=C2NNC(=O)N2c2ccc(-c3ccc4occc4c3)cc2)C1 + C[C@H](NC(=O)c1sccc1OCc1ccc(Cl)cc1)c1ccccc1 [as1949490]
cell viability [%], [1]
Conditions	drug1 concentration 5 nM	drug1 concentration 10 nM	drug1 concentration 50 nM	drug1 concentration 100 nM	drug1 concentration 500 nM	drug1 concentration 1000 nM	drug1 concentration 5000 nM
drug2 concentration 5 nM	81.9	89	82.7	68	60.7	60.8	51.6
drug2 concentration 10 nM	> 100	86.7	79.5	65	58.1	58.4	48.5
drug2 concentration 50 nM	99.3	83.4	74.8	57.3	59.3	51.9	42.1
drug2 concentration 100 nM	95.7	83.4	68.3	53.2	56.1	48.8	37.7
drug2 concentration 500 nM	88.6	78.1	63.5	56	46.3	49.6	38.5
drug2 concentration 1000 nM	86.2	76.1	60.1	46.8	43.6	44.1	35.8
drug2 concentration 5000 nM	80.8	72.6	57.6	43.4	44.8	40.9	33.3

C[C@H](NC(=O)c1sccc1OCc1ccc(Cl)cc1)c1ccccc1
cell viability [%]
Conditions	[2]	[3]	[4]	[5]	[6]	[7]	[8]	[9]
1 nM	81.9	92.7	84.8	93	94.6	92.9	94.5	91.3
10 nM	67.4	95.6	59.2	> 100	93.6	89	95.9	83.9
100 nM	73.5	97.7	79	> 100	94.1	92.3	91	96.3
1000 nM	80.2	92.2	59.2	97.6	83.3	91.7	> 100	96.2
10000 nM	< 0	81.3	1.24	> 100	39.9	43.4	54	1.02

O=C(O)Cn1nnc(-c2cc(N3CCC(Oc4cc(F)ccc4Br)CC3)no2)n1 [MK-8245]
cell viability [%]
Conditions	[2]	[3]	[4]	[5]	[6]	[7]	[8]	[9]
1 nM	56.6	95.9	82.3	> 100	97.3	87.2	96.4	> 100
10 nM	80.7	91.5	69.4	96.4	96.4	88.5	77.4	98.2
100 nM	> 100	93.5	79.2	> 100	81	99.8	98	78.1
1000 nM	54.5	> 100	85.3	> 100	97.3	95.8	97.5	62
10000 nM	4.72	95.2	71.9	97	> 100	95.5	98.5	57

CC[C@@]1(O)C(=O)OCc2c1cc1n(c2=O)Cc2cc3c(CN(C)C)c(O)ccc3nc2-1 [Topotecan]
cell viability [%]
Conditions	[2]	[3]	[4]	[5]	[6]	[7]	[8]	[9]
1 nM	84.6	95.4	78.4	99.8	75.3	85.7	83.6	90.9
10 nM	88.3	89.4	58.3	97.2	84.2	91.7	80.9	89.8
100 nM	35.4	83.5	31.8	92.4	> 100	92.3	98.6	20
1000 nM	6.65	54.8	58.8	76.2	82.5	97.4	96	18.6
10000 nM	1.3	0.856	1.24	53.3	4.14	21.9	28.6	2.85

O=C1O/C(=C/Br)CCC1c1cccc2ccccc12 (stereo not drawn) [Bromoenol Lactone]
cell viability [%]
Conditions	[2]	[3]	[4]	[5]	[6]	[7]	[8]	[9]
1 nM	63.6	89.3	66	> 100	64.7	80.2	68.2	89.5
10 nM	47.6	91.6	39.3	94.6	93.3	89.3	90.4	82.1
100 nM	46.5	96.4	46.4	99.2	85.8	89.3	79.3	62.3
1000 nM	10.6	89	5.6	87.7	53.4	82.2	69.3	1.83
10000 nM	< 0	3.92	0.492	57.2	3.26	28.1	14.6	< 0

Oc1ccc(Nc2nc(-c3ccc(Cl)cc3)cs2)cc1 [SKI II]
cell viability [%]
Conditions	[2]	[3]	[4]	[5]	[6]	[7]	[8]	[9]
1 nM	49.5	69.6	20.1	89.5	65.6	77.6	64.1	56.2
10 nM	47.7	93.3	79.9	97.2	94.5	94.2	> 100	92.1
100 nM	> 100	85.9	67.9	98.4	54.5	89.3	> 100	89.3
1000 nM	9.05	87.3	24.7	92	89.1	92.9	88.9	44.4
10000 nM	81.9	33.6	4.42	79.3	25.3	32.9	32.6	0.909
